Measured values taken from ChEMBL document CHEMBL4706588, “Rational design and biological evaluation of a new class of thiazolopyridyl tetrahydroacridines as cholinesterase and GSK-3 dual inhibitors for Alzheimer's disease” (Eur J Med Chem, 2020).

Legend:
[1] = biological target: Acetylcholinesterase (Homo sapiens, UniProt P22303); assay: Inhibition of human AChE using acetylthiocholine iodide as substrate preincubated with enzyme for 1 min followed by substrate addition and measured after 10 mins by Ellman's method
[2] = biological target: Cholinesterase (Homo sapiens, UniProt P06276); assay: Inhibition of human BuChE using butyrylthiocholine iodide as substrate preincubated with enzyme for 1 min followed by substrate addition and measured after 10 mins by Ellman's method
[3] = biological target: Glycogen synthase kinase-3 beta (Homo sapiens, UniProt P49841); assay: biochemical
Description: Inhibition of recombinant human N-terminal His6-tagged GSK-3beta H350L mutant expressed in baculovirus infected Sf21 cells using GSM as substrate incubated for 30 mins in presence of ATP by kinase-glo luminescence assay

[4] = in vitro; conditions: PAMPA
Description: Effective permeability of compound at 100 ug/ml incubated for 20 hrs by PAMPA-BBB assay

Glycogen synthase kinase-3 beta, sequence (P49841 whole entry): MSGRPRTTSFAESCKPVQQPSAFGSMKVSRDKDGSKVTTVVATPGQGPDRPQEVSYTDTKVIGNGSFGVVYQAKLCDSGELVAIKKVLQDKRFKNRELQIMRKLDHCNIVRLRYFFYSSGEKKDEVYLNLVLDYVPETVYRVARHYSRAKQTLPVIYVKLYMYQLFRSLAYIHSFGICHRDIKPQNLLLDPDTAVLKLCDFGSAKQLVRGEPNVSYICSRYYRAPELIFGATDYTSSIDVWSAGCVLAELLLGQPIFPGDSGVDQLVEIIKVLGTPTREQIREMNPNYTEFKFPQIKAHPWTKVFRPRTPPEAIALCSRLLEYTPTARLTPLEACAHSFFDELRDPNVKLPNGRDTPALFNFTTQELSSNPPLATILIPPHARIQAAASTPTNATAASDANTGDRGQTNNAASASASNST
Cholinesterase, sequence (P06276 whole entry): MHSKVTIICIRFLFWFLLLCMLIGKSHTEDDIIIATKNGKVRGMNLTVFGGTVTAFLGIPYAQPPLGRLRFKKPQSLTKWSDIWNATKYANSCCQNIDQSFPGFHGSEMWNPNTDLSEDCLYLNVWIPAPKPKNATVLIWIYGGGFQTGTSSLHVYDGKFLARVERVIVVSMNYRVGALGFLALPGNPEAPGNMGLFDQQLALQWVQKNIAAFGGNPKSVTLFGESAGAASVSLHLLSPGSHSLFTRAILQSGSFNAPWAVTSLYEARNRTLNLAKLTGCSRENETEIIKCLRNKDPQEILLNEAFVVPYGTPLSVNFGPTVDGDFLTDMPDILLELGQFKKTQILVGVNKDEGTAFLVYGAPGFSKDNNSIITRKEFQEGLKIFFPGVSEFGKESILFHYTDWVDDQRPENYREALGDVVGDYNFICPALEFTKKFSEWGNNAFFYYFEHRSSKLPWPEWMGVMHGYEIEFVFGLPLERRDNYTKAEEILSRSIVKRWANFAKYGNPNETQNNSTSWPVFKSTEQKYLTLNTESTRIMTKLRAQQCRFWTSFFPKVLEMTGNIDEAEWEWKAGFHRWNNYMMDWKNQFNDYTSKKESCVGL
Acetylcholinesterase, sequence (P22303 whole entry): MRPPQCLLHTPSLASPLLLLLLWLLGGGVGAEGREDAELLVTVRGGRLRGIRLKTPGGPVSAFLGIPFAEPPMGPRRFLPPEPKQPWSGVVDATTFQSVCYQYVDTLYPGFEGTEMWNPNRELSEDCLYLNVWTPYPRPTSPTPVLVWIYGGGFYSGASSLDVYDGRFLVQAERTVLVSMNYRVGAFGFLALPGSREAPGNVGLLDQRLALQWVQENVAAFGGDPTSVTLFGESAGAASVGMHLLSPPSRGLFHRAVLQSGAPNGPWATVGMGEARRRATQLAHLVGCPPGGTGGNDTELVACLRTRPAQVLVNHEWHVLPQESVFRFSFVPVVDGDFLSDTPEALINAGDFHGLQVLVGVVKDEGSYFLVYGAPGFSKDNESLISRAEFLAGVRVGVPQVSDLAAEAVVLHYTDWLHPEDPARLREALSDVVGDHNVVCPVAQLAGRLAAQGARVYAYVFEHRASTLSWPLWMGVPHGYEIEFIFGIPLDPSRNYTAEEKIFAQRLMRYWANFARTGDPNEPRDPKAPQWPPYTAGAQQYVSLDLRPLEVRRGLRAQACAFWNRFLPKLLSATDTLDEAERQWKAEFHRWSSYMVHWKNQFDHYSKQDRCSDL

Row | SMILES | IC50 [1] | IC50 [2] | IC50 [3] | Papp at 20 h, 100 ug/ml [4]
1 | NC(=O)c1sc(-c2ccnc(NC(=O)C3CC3)c2)nc1OCCc1cn(-c2c3c(nc4ccccc24)CCCC3)nn1 | > 1000 nM | > 1000 nM | 6.5 nM | 
2 | O=C(NCCCNc1c2c(nc3ccccc13)CCCC2)c1sc(-c2ccnc(NC(=O)C3CCC3)c2)nc1OCC1CC1 | 295 nM | 30.7 nM | 80.7 nM | 
3 | CNC(=O)c1sc(-c2ccnc(NC(=O)CNCCNc3c4c(nc5ccccc35)CCCC4)c2)nc1OC(C)C | 237 nM | 330 nM | 71.6 nM | 
4 | CNC(=O)c1sc(-c2ccnc(NC(=O)CNCCCCCCCCNc3c4c(nc5ccccc35)CCCC4)c2)nc1OCC1CC1 | 15.2 nM | 3.2 nM | 62.2 nM | 
5 | O=C(NCCCNc1c2c(nc3ccccc13)CCCC2)c1sc(-c2ccnc(NC(=O)C3CC3)c2)nc1OCC1CC1 | 312 nM | 216 nM | 104 nM | 
6 | CNC(=O)c1sc(-c2ccnc(NC(=O)C3CC3)c2)nc1OCCc1cn(CCNc2c3c(nc4ccc(OC)cc24)CCCC3)nn1 | > 1000 nM | 37.5 nM | 37.1 nM | 
7 | CCCNC(=O)c1sc(-c2ccnc(NC(=O)CNCCNc3c4c(nc5ccccc35)CCCC4)c2)nc1OCC1CC1 | 4.9 nM | 89.5 nM | 239 nM | 
8 | CNC(=O)c1sc(-c2ccnc(NC(=O)C3CC3)c2)nc1OCCCc1cn(CCNc2c3c(nc4ccccc24)CCCC3)nn1 | 168 nM | 170 nM | 64.3 nM | 
9 | CNC(=O)c1sc(-c2ccnc(NC(=O)CNCCNc3c4c(nc5ccccc35)CCCC4)c2)nc1OC | 97.4 nM | 262 nM | 41.1 nM | 
10 | CNC(=O)c1sc(-c2ccnc(NC(=O)C3CC3)c2)nc1OCCOCc1cn(CCNc2c3c(nc4ccc(OC)cc24)CCCC3)nn1 | > 1000 nM | > 1000 nM | 31 nM | 
11 | CNC(=O)c1sc(-c2ccnc(NC(=O)C3CC3)c2)nc1OCCCc1cn(CCNc2c3c(nc4ccc(OC)cc24)CCCC3)nn1 | > 1000 nM | > 1000 nM | 14.6 nM | 
12 | COc1nc(-c2ccnc(NC(=O)C3CC3)c2)sc1C(N)=O | > 1000 nM | > 1000 nM | 17.2 nM | 
13 | CNC(=O)c1sc(-c2ccnc(NC(=O)CNCCNc3c4c(nc5ccccc35)CCCC4)c2)nc1OCC(C)(C)C | 103 nM | 236 nM | 165 nM | 
14 | CC(=O)Nc1cc(-c2nc(OCC3CC3)c(C(=O)NCCCNc3c4c(nc5ccccc35)CCCC4)s2)ccn1 | 394 nM | 173 nM | 92.8 nM | 
15 | CNC(=O)c1sc(-c2ccnc(NC(=O)C3CC3)c2)nc1OCCc1cn(-c2c3c(nc4ccccc24)CCCC3)nn1 | > 1000 nM | 600 nM | 51.7 nM | 
16 | CNC(=O)c1sc(-c2ccnc(NC(=O)CNCCNc3c4c(nc5ccccc35)CCCC4)c2)nc1OCC(C)C | 49.2 nM | 619 nM | 132 nM | 
17 | CNC(=O)c1sc(-c2ccnc(NC(=O)C3CC3)c2)nc1OCCc1cn(CCNc2c3c(nc4ccccc24)CCCC3)nn1 | 269 nM | 300 nM | 72 nM | 
18 | CCNC(=O)c1sc(-c2ccnc(NC(=O)CNCCNc3c4c(nc5ccccc35)CCCC4)c2)nc1OCC1CC1 | 45.2 nM | 512 nM | 114 nM | 
19 | CNC(=O)c1sc(-c2ccnc(NC(=O)CNCCCCCCNc3c4c(nc5ccccc35)CCCC4)c2)nc1OCC1CC1 | 21.9 nM | 8.2 nM | 62 nM | 
20 | CCn1cc(C(=O)O)c(=O)c2ccc(-n3cccc3)cc21 |  |  |  | 2.5 ×10⁻⁶ cm/s
21 | CNC(=O)c1sc(-c2ccnc(NC(=O)C3CC3)c2)nc1OCCOCc1cn(-c2c3c(nc4ccccc24)CCCC3)nn1 | > 1000 nM | 200 nM | 83.9 nM | 
22 | CNC(=O)c1sc(-c2ccnc(NC(=O)CNCCNc3c4c(nc5ccccc35)CCCC4)c2)nc1OCC1CCC1 | 155 nM | 277 nM | 130 nM | 
23 | CNC(=O)c1sc(-c2ccnc(NC(=O)CNCCNc3c4c(nc5cc(Cl)ccc35)CCCC4)c2)nc1OCC1CC1 | 40.5 nM | 613 nM | 62.6 nM | 
